Laboratory results taken from patent publication US4230719A, “Novel 2-[4-(3-methyl-2-thienyl)phenyl]propionic acid and pharmaceutically acceptable salt thereof and method for treating symptoms of inflammation and pain” (Toyama Chemical Co., Ltd., priority 1977, dated 1980).
Where two headings read alike, the source gives them in different places.

Columns and labels:
[1] = tested on: Vascular permeability; experiment: Vascular permeability in rat (Whittle's method); assay type: in vivo, rat (Wistar strain, male)
Description: (ii) Vascular permeability in rat (Whittle's method)
The test compound was orally administered to each Wistar strain male rat (weighing about 150 g) which had been fasted overnight. After 55 minutes, 0.5 ml of a 0.5% Evans Blue solution was intravenously injected. Five minutes thereafter, 0.2 ml/100 g of a 3%(V/V) acetic acid solution was intraperitoneally injected. After 60 minutes from the injection of the acetic acid solution, the rats were killed by suffocation with chloroform. After immediate laparotomy, the dye leaked into the peritoneal cavity was washed out with physiological saline. The washings were made up with the saline to 30 ml and the absorbance at 640 mμ was measured to examine the effect of the test compounds by comparing the amounts of leaked dye per rat with one another.

[2] = tested on: pain threshold (brewer's yeast, hind paw); experiment: Analgesic activity, Randall-Selitto method in rat; assay type: in vivo, rat (Wistar strain, male); settings: for Inhibition: 100% = pain threshold raised by 150 g
Description: (ii) Randall-Selitto method in rat
After one hour, the test compound was orally administered. One hour thereafter, the pain threshold value was measured four times at a time interval of one hour. The mean value of four values obtained was taken as the pain threshold value of each group of rats. The activity of the drug was assumed to be 100% when the pain threshold value was raised by 150 g.

[3] = tested on: phenylbenzoquinone writhing; experiment: Analgesic activity, phenylbenzoquinone method in mouse; assay type: in vivo, mouse (ddY strain, male); settings: for Frequency of writhing, mean ± S.E.: during 10 minutes
Description: (i) Phenylbenzoquinone method in mouse
The test compound was orally administered to each ddY strain male mouse (weighing 22±2 g; 8 mice per group). […] The frequency of writhing during 10 minutes from 5-minutes after the injection of phenylbenzoquinone was measured and compared with that of a control group to which a 0.5% Tween 80 solution was administered. The percent inhibition was calculated by the following equation: [formula]

[4] = tested on: Carrageenin-induced edema; experiment: Carrageenin-induced edema; assay type: in vivo, rat (Donryu strain, male); settings: Rattus norvegicus, po, read-out: Inhibitory percent of swelling; for inhibition in vivo at 15 mg/kg: 15 mg/kg p.o.
Description: (iii) Carrageenin-induced edema
Each of the 6 Donryu strain male rats per group (each weighing about 140 g), which had been fasted overnight, was orally loaded with 4 ml of water and, after 30 minutes, the test compound was orally administered thereto. Thirty minutes thereafter, a 1%(Wt/V) solution of carrageenin in physiological saline was subcutaneously injected into the subplantar region of the left hind paw. At a time interval of one hour, starting from the end of the first hour till the end of the fifth hour after injection of carrageenin, the paw volume was measured by means of a manometer and pressure transducer. By comparison with the percent increase in swelling of the control group of rats to which a 0.5%(V/V) solution of Tween 80 had been administered, the mean inhibitory percent in 5 hours of swelling was calculated by the following equation: [formula]

[5] = tested on: fever (Mycobacterium butyricum); experiment: Antipyretic action; assay type: in vivo, rat (Wistar strain, female)
Description: A suspension (0.6 mg/0.1 ml) of killed and dried Mycobacterium butyricum in liquid paraffin was subcutaneously injected in an amount of 0.1 ml into the subplantar region of the hind paw of each Wistar strain female rat weighing about 180 g. After 14 hours, the fevered rats were divided into groups, and each test compound was orally administered to each group to examine the antipyretic effect.

[6] = in vivo; settings: rat, po
[7] = tested on: Phenol Red (PSP) excretion; experiment: Uricosuric action (a), inhibition of Phenol Red (PSP) excretion; assay type: in vivo, rabbit (male); settings: dose not stated
Description: (a) The action was examined by the method of B. B. Brodie et al. who reported that the inhibitory action on Phenol Red (PSP) excretion correlates with the uricosuric action [Proc. Soc. Exp. Biol. Med., 86, 884 (1954)]. To a male rabbit weighing 2 to 3 kg was intraperitoneally administered the test compound. After 30 minutes, 75 mg/kg of a Phenol Red suspension was injected into the pinna vein of the rabbit and 30 minutes thereafter a blood sample was drawn from the pinna vein. The blood sample was centrifuged and the serum was diluted with physiological saline. The diluted serum was treated with 0.1 N NaOH to develop the color. The concentration of Phenol Red in the serum was determined from the absorbance at 560 mμ.

[8] = tested on: Vascular permeability; experiment: Vascular permeability in mice (Whittle's method); assay type: in vivo, mouse (ddY strain, male); settings: for ED30: po; for Inhibition: dye leakage
Description: (i) Vascular permeability in mice (Whittle's method)
The test compound was orally administered to each ddY strain male mouse (weighing each about 20 g). After 20 minutes, 0.1 ml/10 g of a 4%(Wt/V) solution of Pontamine Sky Blue in physiological saline was intravenously injected and 10 minutes thereafter 0.1 ml/10 g of a 0.7%(V/V) solution of acetic acid in physiological saline was injected intraperitoneally. After 30 minutes, the mice were killed by suffocation with chloroform. After immediate laparotomy, the dye leaked into the peritoneal cavity was washed out with distilled water. The washings were made up with water to 30 ml and the absorbance at 620 mμ was measured. The amount of leaked dye per 20 g of mouse weight was compared.

[9] = tested on: threshold value of pain due to pressure stimuli (tail); settings: for Analgesic effect: 100% = threshold raised by 160 g; for ED50: Mus musculus, po
[10] = Mus musculus, po, 10 min, read-out: Inhibition
[11] = Mus musculus, po, 10 min, writhing, 40 mg/kg p.o.

For `COc1ccc2c(c1)c(CC(=O)O)c(C)n2C(=O)c1ccc(Cl)cc1` [Indomethacin], the Inhibition ([1]; 0.5 mg/kg p.o.) was 20.7%, the Inhibition ([1]; 1 mg/kg p.o.) was 32.5% and the Inhibition ([1]; 5 mg/kg p.o.) was 47.7%. The ED30 ([1]; Rattus norvegicus, po) was 1 mg/kg, the Inhibition ([2]; 1 mg/kg p.o.) was 27.4% and the Inhibition ([2]; 5 mg/kg p.o.) was 41.6%. The Inhibition ([2]; 25 mg/kg p.o.) was 75.6%, the ED50 ([2]; Rattus norvegicus, po) was 6.3 mg/kg and the “Frequency of writhing, mean ± S.E.” value ([3]; 5 mg/kg p.o.) was 13.8 ± 2.9. For the same compound, the “Frequency of writhing, mean ± S.E.” value ([3]; 10 mg/kg p.o.) was 9.1 ± 3.1, the “Frequency of writhing, mean ± S.E.” value ([3]; 20 mg/kg p.o.) was 5.4 ± 2.1 and the ED50 ([3]; Mus musculus, po) was 7 mg/kg. The inhibition in vivo at 5 mg/kg [3, 10] was 41.5%, the inhibition in vivo at 10 mg/kg [3, 10] was 61.4% and the inhibition in vivo at 20 mg/kg [3, 10] was 77.1%. For the same compound, the inhibition in vivo at 1 mg/kg ([4]; 5 h) was 6.4%, the inhibition in vivo at 5 mg/kg ([4]; 5 h) was 46.2% and the “Mean decrease in temp.” value ([5]; 0.2 mg/kg p.o.) was 0.25 °C. For the same compound, the “Mean decrease in temp.” value ([5]; 1 mg/kg p.o.) was 0.87 °C, the “Mean decrease in temp.” value ([5]; 5 mg/kg p.o.) was 1.35 °C and the ED1.0 ([5]; Rattus norvegicus, po) was 1.06 mg/kg. For the same compound, the LD50 [6] was 16.2 mg/kg, the “Uricosuric action (in words)” value [7] was “very weak” and the “Dye leakage (P.S.B.) mean ± S.E.” value ([8]; 5 mg/kg p.o.) was 240.5 ± 25.9 μg/20g. The “Dye leakage (P.S.B.) mean ± S.E.” value ([8]; 10 mg/kg p.o.) was 204.5 ± 17.6 μg/20g, the “Dye leakage (P.S.B.) mean ± S.E.” value ([8]; 20 mg/kg p.o.) was 176.4 ± 17.0 μg/20g and the ED30 ([8]; Mus musculus) was 6.8 mg/kg. It also gave an Inhibition ([8]; 5 mg/kg p.o.) of 25.0%, an Inhibition ([8]; 10 mg/kg p.o.) of 36.3% and an Inhibition ([8]; 20 mg/kg p.o.) of 45.0%. For the same compound, the Analgesic effect ([9]; 5 mg/kg p.o.) was 44%, the Analgesic effect ([9]; 20 mg/kg p.o.) was 80% and the ED50 [9] was 6 mg/kg.

`CC(=O)Oc1ccccc1C(=O)O` [Aspirin] showed an Analgesic effect ([9]; 200 mg/kg p.o.) of 25%, an Analgesic effect ([9]; 800 mg/kg p.o.) of 53% and an ED50 [9] of 710 mg/kg.

With `Cc1cc(-c2ccc(C(C)C(=O)O)cc2)sc1C` (stereo not drawn) [Compound C7] the “Frequency of writhing, mean ± S.E.” value ([3]; 40 mg/kg p.o.) was 19.1 ± 3.8, the inhibition in vivo at 40 mg/kg [3, 11] was 19.1% and the ED50 ([3]; po, mouse, read-out: ED50) was > 50 mg/kg. It also gave an inhibition in vivo at 5 mg/kg ([4]; 5 mg/kg p.o., mean in 5 hours) of -21.6% and an inhibition in vivo at 15 mg/kg ([4]; mean in 5 hours) of 15.1%.

For `CCCc1ccsc1-c1ccc(C(C)C(=O)O)cc1` (stereo not drawn) [Compound C4], the “Frequency of writhing, mean ± S.E.” value ([3]; 40 mg/kg p.o.) was 24.0 ± 2.6, the inhibition in vivo at 40 mg/kg [3, 11] was -1.7% and the ED50 ([3]; po, mouse, read-out: ED50) was > 50 mg/kg. It also gave an inhibition in vivo at 5 mg/kg ([4]; 5 mg/kg p.o., mean in 5 hours) of -7.2% and an inhibition in vivo at 15 mg/kg ([4]; mean in 5 hours) of -2.7%.

`CC(C)Cc1ccc(C(C)C(=O)O)cc1` (stereo not drawn) [Ibuprofen] showed an Analgesic effect ([9]; 20 mg/kg p.o.) of 36%, an Analgesic effect ([9]; 80 mg/kg p.o.) of 60% and an ED50 [9] of 44.5 mg/kg.

For `CCc1ccsc1-c1ccc(C(C)C(=O)O)cc1` (stereo not drawn) [Compound C1], the “Frequency of writhing, mean ± S.E.” value ([3]; 10 mg/kg p.o.) was 23.6 ± 5.0, the “Frequency of writhing, mean ± S.E.” value ([3]; 20 mg/kg p.o.) was 23.7 ± 4.4 and the “Frequency of writhing, mean ± S.E.” value ([3]; 40 mg/kg p.o.) was 23.1 ± 3.9. For the same compound, the inhibition in vivo at 10 mg/kg ([3]; Mus musculus, po, 10 min, writhing, 10 mg/kg p.o., read-out: Inhibition) was 0%, the inhibition in vivo at 20 mg/kg ([3]; Mus musculus, po, 10 min, writhing, 20 mg/kg p.o., read-out: Inhibition) was -0.4% and the inhibition in vivo at 40 mg/kg [3, 11] was 2.1%. The ED50 ([3]; po, mouse, read-out: ED50) was > 50 mg/kg, the inhibition in vivo at 5 mg/kg ([4]; 5 mg/kg p.o., mean in 5 hours) was 9.3% and the LD50 [6] was > 400 mg/kg. For the same compound, the “Dye leakage (P.S.B.) mean ± S.E.” value ([8]; 10 mg/kg p.o.) was 316.9 ± 29.0 μg/20g, the “Dye leakage (P.S.B.) mean ± S.E.” value ([8]; 20 mg/kg p.o.) was 245.9 ± 15.4 μg/20g and the Inhibition ([8]; 10 mg/kg p.o.) was 18.0%. It also gave an Inhibition ([8]; 20 mg/kg p.o.) of 36.4% and an ED30 ([8]; mouse, read-out: ED30) of 16 mg/kg.
